# Key:
# [1] = Antiproliferative activity against human RPMI8226 cells assessed as cell growth inhibition after 48 hrs by MTT assay; format: functional, cell-based; conditions: RPMI-8226, 48 h
# [2] = Antiproliferative activity against human KG1 cells assessed as cell growth inhibition after 48 hrs by MTT assay; format: functional, cell-based; conditions: KG-1, 48 h
# [3] = Antiproliferative activity against human SK-UT-1B cells assessed as cell growth inhibition after 48 hrs by MTT assay; format: functional, cell-based; conditions: Skut1B
# [4] = Antiproliferative activity against human MOLT3 cells assessed as cell growth inhibition after 48 hrs by MTT assay; format: functional, cell-based; conditions: MOLT-3, 48 h
# K562 [5] = assay: Antiproliferative activity against human K562 cells assessed as cell growth inhibition after 48 hrs by MTT assay; format: functional, cell-based; conditions: K562, 48 h
# [6] = Antiproliferative activity against human SKHEP1 cells assessed as cell growth inhibition after 48 hrs by MTT assay; format: functional, cell-based; conditions: SK-HEP1, 48 h
# MCF7 [7] = assay: Antiproliferative activity against human MCF7 cells assessed as cell growth inhibition after 48 hrs by MTT assay; format: functional, cell-based; conditions: MCF7, 48 h
# ZR-75-1 [8] = assay: Antiproliferative activity against human ZR-75-1 cells assessed as cell growth inhibition after 48 hrs by MTT assay; format: functional, cell-based; conditions: ZR-75-1, 48 h
# [9] = Antiproliferative activity against human KG1 cells assessed as cell growth inhibition after 72 hrs by MTT assay; format: functional, cell-based; conditions: KG-1, 72 h
# [10] = Antiproliferative activity against human M-HeLa cells assessed as cell growth inhibition after 48 hrs by MTT assay; format: functional, cell-based
# HL-60 [11] = assay: Antiproliferative activity against human HL60 cells assessed as cell growth inhibition after 48 hrs by MTT assay; format: functional, cell-based; conditions: HL-60, 48 h
# Raji = assay: Antiproliferative activity against human Raji cells assessed as cell growth inhibition after 48 hrs by MTT assay; format: functional, cell-based
# Rattus norvegicus [12] = assay: Prodrug conversion in Wistar rat assessed as prolonged serum circulation of liberated F-ara-A at 77 mg/kg, ig administered as single dose by HPLC analysis; format: ADME, organism-based; conditions: in vivo, po
# Rattus norvegicus [13] = assay: Prodrug conversion in Wistar rat assessed as slow F-ara-A release into bloodstream at 77 mg/kg, ig administered as single dose by HPLC analysis; format: ADME, organism-based; conditions: in vivo, po
# Rattus norvegicus [14] = assay: Prodrug conversion in Wistar rat assessed as smooth increase in F-ara-A concentration in serum at 77 mg/kg, ig administered as single dose by HPLC analysis; format: ADME, organism-based; conditions: in vivo, po
# MCF7 [15] = assay: Antiproliferative activity against human MCF7 cells assessed as cell growth inhibition after 72 hrs by MTT assay; format: functional, cell-based; conditions: MCF7, 72 h
# HL-60 [16] = assay: Antiproliferative activity against human HL60 cells assessed as cell growth inhibition after 72 hrs by MTT assay; format: functional, cell-based; conditions: HL-60, 72 h
# [17] = Antiproliferative activity against human M-HeLa cells assessed as cell growth inhibition after 72 hrs by MTT assay; format: functional, cell-based
# Rattus norvegicus [18] = assay: Prodrug conversion in Wistar rat assessed as smooth increase in F-ara-A concentration in serum at 72 mg/kg, ig administered as single dose by HPLC analysis; format: ADME, organism-based; conditions: in vivo, po
# K562 [19] = assay: Antiproliferative activity against human K562 cells assessed as cell growth inhibition after 72 hrs by MTT assay; format: functional, cell-based; conditions: K562, 72 h
# ZR-75-1 [20] = assay: Antiproliferative activity against human ZR-75-1 cells assessed as cell growth inhibition after 72 hrs by MTT assay; format: functional, cell-based; conditions: ZR-75-1, 72 h
# [21] = Antiproliferative activity against human SK-UT-1B cells assessed as cell growth inhibition after 72 hrs by MTT assay; format: functional, cell-based; conditions: Skut1B
# Rattus norvegicus [22] = assay: Prodrug conversion in Wistar rat assessed as prolonged serum circulation of liberated F-ara-A at 72 mg/kg, ig administered as single dose by HPLC analysis; format: ADME, organism-based; conditions: in vivo, po
# Rattus norvegicus [23] = assay: Prodrug conversion in Wistar rat assessed as slow F-ara-A release into bloodstream at 72 mg/kg, ig administered as single dose by HPLC analysis; format: ADME, organism-based; conditions: in vivo, po
# Mus musculus [24] = assay: Cmin in ICR mouse assessed as F-ara-A concentration at 50 mg/kg, ig administered as single dose after 24 hrs by HPLC analysis; format: ADME, organism-based; conditions: in vivo, po
# Mus musculus [25] = assay: Apparent half-life in ICR mouse assessed as F-ara-A content at 50 mg/kg, ig administered as single dose by HPLC analysis; format: ADME, organism-based; conditions: in vivo, po
# Mus musculus [26] = assay: Cmax in ICR mouse assessed as F-ara-A concentration at 50 mg/kg, ig administered as single dose by HPLC analysis; format: ADME, organism-based; set-up: dose 50 mg/kg, route intragastric; conditions: in vivo, po
# Mus musculus [27] = assay: Tmax in ICR mouse assessed as F-ara-A concentration at 50 mg/kg, ig administered as single dose by HPLC analysis; format: ADME, organism-based; conditions: in vivo, po
# Mus musculus [28] = assay: Cmax in ICR mouse assessed as F-ara-A concentration at 120.4 mg/kg, ig administered as single dose by HPLC analysis; format: ADME, organism-based; set-up: dose 120.4 mg/kg, route intragastric; conditions: in vivo, po
# Mus musculus [29] = assay: Apparent half-life in ICR mouse assessed as F-ara-A content at 120.4 mg/kg, ig administered as single dose by HPLC analysis; format: ADME, organism-based; conditions: in vivo, po
# Mus musculus [30] = assay: Cmin in ICR mouse assessed as F-ara-A concentration at 120.4 mg/kg, ig administered as single dose after 24 hrs by HPLC analysis; format: ADME, organism-based; conditions: in vivo, po
# Mus musculus [31] = assay: Tmax in ICR mouse assessed as F-ara-A concentration at 120.4 mg/kg, ig administered as single dose by HPLC analysis; format: ADME, organism-based; conditions: in vivo, po
Compound,IC50 (K562 [5]),IC50 (MCF7 [7]),IC50 (HL-60 [11]),IC50 (Raji),IC50 [2],IC50 [3],IC50 [4],IC50 (ZR-75-1 [8]),IC50 [9],IC50 [10],further results
CCCCCCCCCCCCCCCC(=O)OCC(COC(=O)CCCCCCCCCCCCCCC)OP(=O)(O)OC[C@H]1O[C@@H](n2cnc3c(N)nc(Cl)nc32)C[C@@H]1O,> 100 µM,> 100 µM,–,–,–,–,> 100 µM,–,–,–,–
CCCCCCCCCCCCCCCC(=O)OCC(COP(=O)([O-])OC[C@H]1O[C@@H](n2cnc3c(N)nc(F)nc32)[C@@H](O)[C@@H]1O)OC(=O)CCCCCCCCCCCCCCC.[Na+] (some centres not stated),> 100 µM,> 100 µM,> 100 µM,> 100 µM,> 100 µM,> 100 µM,> 100 µM,> 100 µM,75 µM,> 100 µM,Drug metabolism (Rattus norvegicus [12]): metabolite_detected; Drug metabolism (Rattus norvegicus [13]): metabolite_detected; Drug metabolism (Rattus norvegicus [14]): metabolite_detected
CCCCCCCCCCCCCC(=O)OCC(COC(=O)CCCCCCCCCCCCC)OP(=O)([O-])OC[C@H]1O[C@@H](n2cnc3c(N)nc(F)nc32)[C@@H](O)[C@@H]1O.[Na+],75 µM,> 100 µM,80 µM,> 100 µM,> 100 µM,> 100 µM,> 100 µM,> 100 µM,35 µM,> 100 µM,IC50 (MCF7 [15]): 45 µM; IC50 (HL-60 [16]): 65 µM; IC50 [17]: 45 µM; Drug metabolism (Rattus norvegicus [18]): metabolite_detected; IC50 (K562 [19]): > 100 µM; IC50 (ZR-75-1 [20]): 75 µM; IC50 [21]: 55 µM; Drug metabolism (Rattus norvegicus [22]): metabolite_detected; Drug metabolism (Rattus norvegicus [23]): metabolite_detected
CCCCCCCCCCCCCC(=O)OCC(COC(=O)CCCCCCCCCCCCC)OP(=O)(O)OC[C@H]1O[C@@H](n2cnc3c(N)nc(Cl)nc32)C[C@@H]1O,> 100 µM,> 100 µM,–,–,–,–,> 100 µM,–,–,–,–
CCCCCCCCCCCCCCCC(=O)OCC(COP(=O)(O)OC[C@H]1O[C@@H](n2cnc3c(N)nc(Cl)nc32)C[C@@H]1O)OC(=O)CCCCCCCCCCCCCCC (some centres not stated),> 100 µM,> 100 µM,–,–,–,–,> 100 µM,–,–,–,–
CCCCCCCCCCCCCCCC(=O)OCC(COC(=O)CCCCCCCCCCCCCCC)OP(=O)([O-])OC[C@H]1O[C@@H](n2cnc3c(N)nc(F)nc32)[C@@H](O)[C@@H]1O.[Na+],> 100 µM,> 100 µM,> 100 µM,> 100 µM,> 100 µM,> 100 µM,> 100 µM,> 100 µM,–,> 100 µM,Drug metabolism (Rattus norvegicus [12]): metabolite_detected; Drug metabolism (Rattus norvegicus [13]): metabolite_detected; Drug metabolism (Rattus norvegicus [14]): metabolite_detected

# The next molecules have a lower IC50 (K562 [5]) than those just listed; values first:
IC50 (K562 [5]),IC50 (MCF7 [7]),IC50 (HL-60 [11]),IC50 (Raji),Compound,IC50 [2],IC50 [3],IC50 [4],IC50 (ZR-75-1 [8]),IC50 [9],IC50 [10],further results
50 µM,> 100 µM,–,–,CCCCCCCCCCCCCC(=O)OCC(COP(=O)(O)OC[C@H]1O[C@@H](n2cnc3c(N)nc(Cl)nc32)C[C@@H]1O)OC(=O)CCCCCCCCCCCCC (some centres not stated),17 µM,> 100 µM,8 µM,> 100 µM,–,–,IC50 [1]: > 100 µM; IC50 [6]: > 100 µM
45 µM,45 µM,30 µM,> 100 µM,CCCCCCCCCCCCCC(=O)OCC(COP(=O)([O-])OC[C@H]1O[C@@H](n2cnc3c(N)nc(F)nc32)[C@@H](O)[C@@H]1O)OC(=O)CCCCCCCCCCCCC.[Na+] (some centres not stated),55 µM,> 100 µM,> 100 µM,> 100 µM,9 µM,> 100 µM,Cmax (Mus musculus [28]): 1613 ng/mL; IC50 (MCF7 [15]): 18 µM; IC50 (HL-60 [16]): 16 µM; t1/2(app) (Mus musculus [29]): 14.2 h; Cmin (Mus musculus [30]): 199 ng/mL; Drug metabolism (Rattus norvegicus [18]): metabolite_detected; IC50 (K562 [19]): > 100 µM; Drug metabolism (Rattus norvegicus [22]): metabolite_detected; Drug metabolism (Rattus norvegicus [23]): metabolite_detected; Tmax (Mus musculus [31]): 2.8 h
10 µM,45 µM,–,–,Nc1nc(Cl)nc2c1ncn2[C@H]1C[C@H](O)[C@@H](CO)O1 [CLADRIBINE],0.2 µM,1 µM,2.3 µM,> 100 µM,–,–,IC50 [1]: 6 µM; IC50 [6]: 4 µM
0.4 µM,0.13 µM,0.09 µM,0.4 µM,Nc1nc(F)nc2c1ncn2[C@@H]1O[C@H](COP(=O)(O)O)[C@@H](O)[C@@H]1O [FLUDARABINE PHOSPHATE],0.15 µM,6 µM,0.95 µM,0.6 µM,–,2 µM,Cmin (Mus musculus [24]): 13 ng/mL; t1/2(app) (Mus musculus [25]): 1.5 h; Cmax (Mus musculus [26]): 8989 ng/mL; Tmax (Mus musculus [27]): 0.9 h

# From ChEMBL document CHEMBL3596105, “Phospholipid derivatives of cladribine and fludarabine: synthesis and biological properties” (Bioorg Med Chem, 2015)
